Test results published in patent US8445473B2, “Heteroaryl-substituted bicyclic Smac mimetics and the uses thereof” (The Regents of the University of Michigan, priority 2008, dated 2013).

Legend:
XIAP BIR3 protein [1] = biological target: T1, XIAP BIR3 protein (Homo sapiens, UniProt P98170); experiment: Fluorescence polarization competitive binding assay to XIAP BIR3; details: FP competitive binding, SM5F or SM-F1 as the tracer
Description: A sensitive and quantitative in vitro binding assay using the fluorescence polarization (FP) based method was used to determine the binding affinity of Smac mimetics to XIAP protein (Nikolovska-Coleska et al., Anal. Biochem. 332:261-73 (2004)). For this assay, 5-carboxyfluorescein (5-Fam) was coupled to the lysine side chain of the mutated Smac peptide, AbuRPF-K-(5-Fam)-NH2 (termed SM5F). Another fluorescently tagged Smac mimetic (termed SM-F1) with higher affinities than SM5F was also used.
(§1) In competitive binding experiments using SM5F as the tracer to XIAP BIR3 protein, the tested compound was incubated with XIAP BIR3 protein (30 nM) and SM5F (5 nM) in the assay buffer (100 mM potassium phosphate, pH 7.5; 100 μg/ml bovine gamma globulin; 0.02% sodium azide, Invitrogen). Dose-dependent competitive binding FP experiments were carried out with serial dilutions of tested compounds. For each assay, the bound peptide control containing recombinant XIAP BIR3 protein and SM5F (equivalent to 0% inhibition) and free peptide control containing only free SM5F (equivalent to 100% inhibition) will be included. The polarization values were measured after 3 hrs of incubation when the binding reached equilibrium using an ULTRA READER (Tecan U.S. Inc., Research Triangle Park, N.C.). IC50 values, the inhibitor concentration at which 50% of bound peptide is displaced, will be determined from a plot using nonlinear least-squares analysis. Curve fitting will be performed using GRAPHPAD PRISM software (GraphPad Software, Inc., San Diego, Calif.).
as §1, with “using SM-F1” for “using SM5F”, “protein (10” for “protein (30”, “and SM-1F (2” for “and SM5F (5”, “and SM-1F” for “and SM5F”, “free SM-1F” for “free SM5F”
Negative controls containing protein/tracer complex only (equivalent to 0% inhibition), and positive controls containing only free tracers (equivalent to 100% inhibition), were included in each assay plate. FP values were measured as described above. IC50 values were determined by nonlinear regression fitting of the competition curves. The Ki values of competitive inhibitors were calculated using the equation described before (Nikolovska-Coleska et al., Anal. Biochem. 332:261-73 (2004)), based upon the measured IC50 values, the Kd values of the tracer to different proteins, and the concentrations of the proteins and tracers in the competitive assays. Ki values were also calculated using a commonly used equation known in the literature (Huang, X. J. Biomol. Screen. 8:34-38 (2003)).

[2] = biological target: T2, cIAP1 BIR3 domain (residues 253-363) (Homo sapiens, UniProt Q13490); experiment: Fluorescence polarization competitive binding assay to cIAP1 BIR3; details: FP competitive binding, SM5F or SM-F1 as the tracer
T2 construct: The recombinant cIAP1 BIR3 domain (residues 253-363); His-tag
Experimental: (§2) In order to test the binding ability of conformationally constrained Smac mimetics to other IAP proteins (cIAP1 and cIAP2) binding assay conditions were developed. The recombinant cIAP1 BIR3 domain (residues 253-363), cIAP2 BIR3 domain (residues 238-349), fused to a His-tag, were used in the binding assays. Competitive binding assays for other IAP proteins are performed similarly as that described for XIAP BIR3.
(§3) In competitive binding experiments using SM5F as the tracer to cIAP-1 BIR3 protein, the tested compound was incubated with cIAP-1 BIR3 protein (10 nM) and SM5F (2 nM) in the assay buffer. In competitive binding experiments using SM5F as the tracer to cIAP-2 BIR3 protein, the tested compound was incubated with cIAP-2 BIR3 protein (25 nM) and SM5F (2 nM) in the assay buffer. All other procedures for cIAP-1 BIR3 and cIAP-2 BIR3 proteins were the same as those used for XIAP BIR3 protein competitive assays.
(§4) In competitive binding experiments using SM-F1 as the tracer to cIAP-1 BIR3 protein, the tested compound was incubated with cIAP-1 BIR3 protein (3 nM) and SM-F1 (1 nM) in the assay buffer. In competitive binding experiments using SM-F1 as the tracer to cIAP-2 BIR3 protein, the tested compound was incubated with cIAP-2 BIR3 protein (5 nM) and SM-F1 (1 nM) in the assay buffer.

[3] = biological target: T3, cIAP2 BIR3 domain (residues 238-349) (Homo sapiens, UniProt Q13489); experiment: Fluorescence polarization competitive binding assay to cIAP2 BIR3; details: FP competitive binding, SM5F or SM-F1 as the tracer
T3 construct: cIAP2 BIR3 domain (residues 238-349); His-tag
Experimental: as §2, §3, §4

[4] = system: MDA-MB-231 human breast cancer cell line; experiment: Cell growth inhibition, WST-8 assay; type: cell-based; details: MDA-MB-231, 96 h, 4 days
Experimental: (§5) The effect of the compounds of the present invention on the growth of various cancer cell lines was tested. Cells were seeded in 96-well flat bottom cell culture plates at a density of 3000 cells/well with a tested compound and incubated at 37° C. in an atmosphere of 95% air and 5% CO2 for 4 days. The rate of cell growth inhibition after treatment with different concentrations of the compound was determined using a WST-8 kit (2-(2-methoxy-4-nitrophenyl)-3-(4-nitrophenyl)-5-(2, 4 disulfophenyl)-2H-tetrazolium monosodium salt; Dojindo Molecular Technologies, Inc., Gaithersburg, Md.). WST-8 was added at a final concentration of 10% to each well, and then the plates were incubated at 37° C. for 2-3 hrs. The absorbance of the samples was measured at 450 nm using a ULTRA Tecan Reader (Molecular Device). The concentration of the tested compound that inhibited cell growth by 50% (IC50) was calculated by comparing absorbance in untreated cells and the cells treated with the tested compound.

[5] = system: SK-OV-3 ovarian cancer cell line; experiment: Cell growth inhibition, WST-8 assay; type: cell-based; details: Homo sapiens, SK-OV-3, 96 h, 4 days
Experimental: as §5

[6] = system: breast cancer MDA-MB-231 cell line; experiment: Induction of cell death, trypan blue exclusion assay; type: cell-based, human; details: MDA-MB-231, 48 hours, FIG. 3
Experimental: (§6) The ability of SM-1238 to induce cell death was tested in the breast cancer MDA-MB-231 and ovarian cancer SK-OV-3 cell lines (FIG. 3). Cells were treated with SM-1238 for 48 hours and cell viability was determined using the trypan blue exclusion assay.

[7] = system: ovarian cancer SK-OV-3 cell line; experiment: as above; type: cell-based, human; details: SK-OV-3, 48 hours, FIG. 3
Experimental: as §6

[8] = Pharmacokinetics in rats following oral administration; details: rat, in vivo, male Sprague-Dawley rats, 25 mg/kg, mean±SD; for AUC(0-inf) / Cmax / Tmax: n=3; for half-life: n=3, read-out: half-life (T½) (converted)
XIAP BIR3 protein [9] = biological target: T1, XIAP BIR3 protein; details: tracer SM5F; Nikolovska-Coleska et al. 2004; cited from earlier work
recombinant cIAP-1 BIR3 = biological target: T4, recombinant cIAP-1 BIR3 (Homo sapiens, UniProt Q13490); details: tracer SM5F; Peng et al. 2008; cited from earlier work
T4 construct: The recombinant cIAP1 BIR3 domain (residues 253-363); His-tag

recombinant cIAP-2 BIR3 = biological target: T5, recombinant cIAP-2 BIR3 (Homo sapiens, UniProt Q13489); details: tracer SM5F; Peng et al. 2008; cited from earlier work
T5 construct: cIAP2 BIR3 domain (residues 238-349); His-tag

XIAP BIR3 = details: background statement; cited from earlier work

T3 sequence (Q13489 238-349): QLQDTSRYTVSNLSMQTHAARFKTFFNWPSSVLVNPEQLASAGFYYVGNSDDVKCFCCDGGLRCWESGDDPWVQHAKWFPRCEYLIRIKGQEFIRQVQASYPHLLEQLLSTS
T2 sequence (Q13490 253-363): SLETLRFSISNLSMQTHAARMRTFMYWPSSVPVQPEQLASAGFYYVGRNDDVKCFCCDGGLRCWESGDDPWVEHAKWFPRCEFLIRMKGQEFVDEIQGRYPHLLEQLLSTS
T1 sequence (P98170 241-356 limits assumed): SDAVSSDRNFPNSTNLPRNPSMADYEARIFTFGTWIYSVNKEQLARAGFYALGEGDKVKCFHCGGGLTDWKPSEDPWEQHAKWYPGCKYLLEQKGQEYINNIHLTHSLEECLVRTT
T5 sequence (Q13489 238-349): as the sequence (Q13489 238-349) above
T4 sequence (Q13490 253-363): as the sequence (Q13490 253-363) above
T1 sequence (P98170 241-356 limits assumed): as the sequence (P98170 241-356 limits assumed) above

| Molecule | IC50 (XIAP BIR3 protein [1]) [nM] | IC50 [2] [nM] | IC50 [3] [nM] | IC50 [4] [nM] | IC50 [5] [nM] | induction of cell death [6] | induction of cell death [7] | AUC(0-inf) [8] [ng·h/mL] | Cmax [8] [ng/mL] | Tmax [8] [h] | half-life [8] [h] | Kd (XIAP BIR3 protein [9]) [nM] | Kd (recombinant cIAP-1 BIR3) [nM] | Kd (recombinant cIAP-2 BIR3) [nM] | Kd (XIAP BIR3) [nM] |
| --- | --- | --- | --- | --- | --- | --- | --- | --- | --- | --- | --- | --- | --- | --- | --- |
| CN[C@@H](C)C(=O)N[C@H]1CCCC[C@H]2CC[C@@H](c3nc(-c4ccccc4)cs3)N2C1=O [SM-1229] | < 5000 | < 2000 | < 2000 | < 100000 | < 100000 |  |  |  |  |  |  |  |  |  |  |
| CN[C@@H](C)C(=O)N[C@H]1CN(C(=O)CC(C)C)CC[C@H]2CC[C@@H](c3nc(-c4ccccc4)cs3)N2C1=O [SM-1235] | < 200 | < 1000 | < 1000 | < 3000 | < 3000 |  |  |  |  |  |  |  |  |  |  |
| CN[C@@H](C)C(=O)N[C@H]1CCCC[C@H]2CC[C@@H](c3nc4c(-c5ccccc5)cccc4[nH]3)N2C1=O [SM-1237] | < 200 | < 100 | < 100 | < 3000 | < 3000 |  |  |  |  |  |  |  |  |  |  |
| CN[C@@H](C)C(=O)N[C@H]1CN(C(=O)CC(C)C)CC[C@H]2CC[C@@H](c3nc4c(-c5ccccc5)cccc4[nH]3)N2C1=O [SM-1238] | < 200 | < 100 | < 100 | < 3000 | < 3000 | induced cell death in both cell lines in a concentration-dependant fashion | induced cell death in both cell lines in a concentration-dependant fashion | 7100 ± 931 | 831 ± 135 | 2 ± 1.7 | 3.7 ± 2 |  |  |  |  |
| CN[C@@H](C)C(=O)N[C@H]1CN(C(=O)Cc2ccccc2)CC[C@H]2CC[C@@H](c3nc4c(-c5ccccc5)cccc4[nH]3)N2C1=O [SM-1257] | < 500 | < 100 | < 100 | < 3000 | < 3000 |  |  |  |  |  |  |  |  |  |  |
| CN[C@@H](C)C(=O)N[C@H]1CN(C(=O)Cc2ccc(F)cc2)CC[C@H]2CC[C@@H](c3nc4c(-c5ccccc5)cccc4[nH]3)N2C1=O [SM-1268] | < 500 | < 100 | < 100 | < 3000 | < 3000 |  |  | 6490 ± 965 | 612 ± 16 | 2 | 4.2 ± 1 |  |  |  |  |
| CN[C@@H](C)C(=O)N[C@H]1CN(C(=O)CCc2ccccc2)CC[C@H]2CC[C@@H](c3nc4c(-c5ccccc5)cccc4[nH]3)N2C1=O [SM-1270] | < 500 | < 100 | < 100 | < 3000 | < 3000 |  |  |  |  |  |  |  |  |  |  |
| CN[C@@H](C)C(=O)N[C@H]1CN(C(=O)CCc2ccc(F)cc2)CC[C@H]2CC[C@@H](c3nc4c(-c5ccccc5)cccc4[nH]3)N2C1=O [SM-1271] | < 500 | < 100 | < 100 | < 3000 | < 3000 |  |  |  |  |  |  |  |  |  |  |
| CN[C@@H](C)C(=O)N[C@H]1CN(C(=O)Cc2ccc(F)cc2)CC[C@H]2CC[C@@H](c3nc4c(-c5cccc(F)c5)cccc4[nH]3)N2C1=O [SM-1306] | < 5000 | < 100 | < 100 | < 3000 | < 3000 |  |  |  |  |  |  |  |  |  |  |
| CN[C@@H](C)C(=O)N[C@H]1CN(C(=O)Cc2ccc(F)cc2)CC[C@H]2CC[C@@H](c3nc4c(-c5ccc(F)cc5)cccc4[nH]3)N2C1=O [SM-1307] | < 500 | < 100 | < 100 | < 3000 | < 3000 |  |  |  |  |  |  |  |  |  |  |
| CN[C@@H](C)C(=O)N[C@H]1CN(C(=O)Cc2ccc(F)cc2)CC[C@H]2CC[C@@H](c3nc4c(-c5ccccc5F)cccc4[nH]3)N2C1=O [SM-1308] | < 500 | < 100 | < 100 | < 3000 | < 3000 |  |  |  |  |  |  |  |  |  |  |
| CN[C@@H](C)C(=O)N[C@H]1CN(C(=O)CC(C)C)CC[C@H]2CC[C@@H](c3nc4c(-c5ccc(F)cc5)cccc4[nH]3)N2C1=O [SM-1316] | < 500 | < 100 | < 100 | < 3000 | < 3000 |  |  | 14300 ± 1970 | 1530 ± 275 | 2 | 6.7 ± 1.2 |  |  |  |  |
| CN[C@@H](C)C(=O)N[C@H]1CN(C(=O)Cc2ccccc2)CC[C@H]2CC[C@@H](c3nc4c(-c5ccc(F)cc5)cccc4[nH]3)N2C1=O [SM-1317] | < 500 | < 100 | < 100 | < 3000 | < 3000 |  |  |  |  |  |  |  |  |  |  |
| AbuRPF-K-(5-Fam)-NH2 [SM5F] |  |  |  |  |  |  |  |  |  |  |  | 17.9 | 4.1 | 6.6 |  |
| mature Smac protein: mature Smac/DIABLO protein, endogenous inhibitor of XIAP (protein, UniProt Q9NR28 22-239, looked up) Diablo IAP-binding …: LCVPVVANFKKRCFSELIRPWHKTVTIGFGVTLCAVPIAQKSEPHSLSSEALMRRAVSLVTDSTSTFLSQTTYALIEAITEYTKAVYTLTSLYRQYTSLLGKMNSEEEDEVWQVIIGARAEMTSKHQEYLKLETTWMTAVGLSEMAAEAAYQTGADQASITARNHIQLVKLQVEEVHQLSRKAETKLAEAQIEELRQKTQEEGEERAESEQEAYLRED |  |  |  |  |  |  |  |  |  |  |  |  |  |  | 420 |
